Measured values published in patent publication EP1650209A1, “Griseusin derivatives and their use as antitumor agents” (Oncotest GmbH, priority 2004, dated 2006).
In brackets after ≈: the same amount, converted by molar mass.

Columns and labels:
Experiment in all cases: Clonogenic assay, colony formation of tumor stem cells from xenografts
Format in all cases: cell-based, human
MEXF 462 = details: Melanoma, xenograft MEXF 462, colony formation
Experimental: (§1) Using various human cancer xenografts in vitro, the concentrations of compound B which inhibit formation of tumor colonies of tumor stem cells by 50% (IC50) and 70% (IC70) are determined in a clonogenic assay. Specifically, each solid tumor of bladder cancer (BXF 1036 and BXF 1299), cervical cancer (CEXF 633 and CEXF 773), colic cancer (CXF 1103, CXF 158, CXF 1729, CXF 264 and CXF 280), gastric cancer (GXF 251 and GXF 97), head and neck cancer (HNXF 536), liver cancer (LIXF 575), non small cell lung cancer comprising adeno, squamous epithelium and large cell carcinoma (LXFA 1012, LXFA 289, LXFA 297, LXFA 526, LXFA 592, LXFA 629, LXFA 677, LXFE 409, LXFL 1072, LXFL 430LX and LXFL 529), small cell lung cancer (LXFS 650), mammary cancer (MAXF 1162, MAXF 1384, MAXF 401, MAXF 449, MAXF 574, MAXF 583, MAXF 713 and MAXF 857), melanoma (MEXF 1341, MEXF 462, MEXF 535 and MEXF 989), ovary cancer (OVXF 899), pancreatic cancer (PAXF 546 and PAXF 736), prostate cancer (DU-145 and PC3M), pleuramesothelioma (PXF 1752), renal cancer (RXF 1220, RXF 1393, RXF 393, RXF 631 and RXF 944LX), and sarcoma (SXF 1301 and SXF 463) engrafted on RPMI nu/nu thymus aplastic nude mice were explanted, disaggregated by mincing and enzymatic digestion for 50 minutes using 125 U/mL DNAse I, 41 U/mL collagenase IV, 100 U/ml hyaluronidase III, and 1 U/mL dispase I, and passed through sieves of 200 µm and 50 µm mesh size and washed twice with sterile PBS-buffer to remove cell aggregated from single cells. The clonogenic assay was performed in a 24 multiwell format. Each of the resulting single cell suspensions was added at a density of 2·10^4 to 6·10^4 cells per well to 0.2 ml of Iscove's Modified Dulbecco's Medium (IMDM) containing 20% fetal calf serum and 0.01% gentamicin supplemented with 0.4% (w/v) agar, and plated onto a bottom layer consisting of the same culture medium containing 0.75% (w/v) agar. After 24 hours IMDM containing 20% fetal calf serum and 0.01 % gentamicin, together with a test compound, was added there to. Then, the plate was incubated at 37°C for 10 to 20 days in a humidified atmosphere of air containing 7.5% CO2. Within this period, in vitro tumor growth led to the formation of colonies with a diameter of > 50µm. Colony counts were performed with an automatic image analysis system (OMNICON 3600). 24 hours prior to evaluation, vital colonies were stained with a vital staining dye. Therefore, 100 µl of a sterile aqueous solution of 2-(4-iodophenyl)-3-(4-nitrophenyl)-5-phenyltetrazolium chloride (1 mg/ml) were added to each well of the plate, and plates were incubated for 24 hours at 37°C in a humidified atmosphere of air containing 7.5% CO2. Inhibition of colony formation was expressed as test versus untreated control (T/C-value [%]). IC50 and IC70 values were determined by plotting compound concentration versus cell viability. Table 3: Inhibition of Colony Formation of Tumor Stem Cells by griseusin derivative B

LXFL 1072 = details: Lung, non small cell, xenograft LXFL 1072, colony formation
Experimental: as §1

RXF 631 = details: Kidney, xenograft RXF 631, colony formation
Experimental: as §1

CEXF 773 = details: Cervix, xenograft CEXF 773, colony formation
Experimental: as §1

LXFL 430LX = details: Lung, non small cell, xenograft LXFL 430LX
Experimental: as §1

CXF 1103 = details: Colon, xenograft CXF 1103, colony formation
Experimental: as §1

MAXF 1162 = details: Breast, xenograft MAXF 1162, colony formation
Experimental: as §1

HNXF 536 = details: Head and Neck, xenograft HNXF 536, colony formation
Experimental: as §1

MAXF 583 = details: Breast, xenograft MAXF 583, colony formation
Experimental: as §1

SXF 463 = details: Sarcoma, xenograft SXF 463, colony formation
Experimental: as §1

LXFA 1012 = details: Lung, non small cell, xenograft LXFA 1012, colony formation
Experimental: as §1

CXF 1729 = details: Colon, xenograft CXF 1729, colony formation
Experimental: as §1

CEXF 633 = details: Cervix, xenograft CEXF 633, colony formation
Experimental: as §1

MEXF 989 = details: Melanoma, xenograft MEXF 989, colony formation
Experimental: as §1

DU-145 = details: Prostate, xenograft DU-145, colony formation
Experimental: as §1

GXF 97 = details: Stomach, xenograft GXF 97, colony formation
Experimental: as §1

RXF 1220 = details: Kidney, xenograft RXF 1220, colony formation
Experimental: as §1

MAXF 574 = details: Breast, xenograft MAXF 574, colony formation
Experimental: as §1

- IC50 (MEXF 462): 1.666 µg/mL (≈ 4.16 µM)
- IC50 (LXFL 1072): 0.252 µg/mL (≈ 0.629 µM)
- IC50 (RXF 631): 0.517 µg/mL (≈ 1.29 µM)
- IC50 (CEXF 773): 1.936 µg/mL (≈ 4.84 µM)
- IC50 (LXFL 430LX): 0.272 µg/mL (≈ 0.679 µM)
- IC50 (CXF 1103): 0.173 µg/mL (≈ 0.432 µM)
- IC50 (MAXF 1162): 0.182 µg/mL (≈ 0.455 µM)
- IC50 (HNXF 536): 0.350 µg/mL (≈ 0.874 µM)
- IC50 (MAXF 583): 0.078 µg/mL (≈ 0.195 µM)
- IC50 (SXF 463): 0.235 µg/mL (≈ 0.587 µM)
- IC50 (LXFA 1012): 0.442 µg/mL (≈ 1.1 µM)
- IC50 (CXF 1729): 0.453 µg/mL (≈ 1.13 µM)
- IC50 (CEXF 633): 1.310 µg/mL (≈ 3.27 µM)
- IC50 (MEXF 989): 0.118 µg/mL (≈ 0.295 µM)
- IC50 (DU-145): 1.086 µg/mL (≈ 2.71 µM)
- IC50 (GXF 97): 0.300 µg/mL (≈ 0.749 µM)
- IC50 (RXF 1220): 0.782 µg/mL (≈ 1.95 µM)
- IC50 (MAXF 574): 0.335 µg/mL (≈ 0.837 µM)
SMILES: C[C@@H]1CC(=O)[C@@H](O)[C@]2(O1)O[C@@H]1CC(=O)O[C@@H]1C1=C2C(=O)c2c(O)cccc2C1=O [Compound B, 4'-dehydro-deacetylgriseusin A]
- IC70 (MEXF 462): 2.152 µg/mL (≈ 5.38 µM)
- IC70 (LXFL 1072): 0.468 µg/mL (≈ 1.17 µM)
- IC70 (RXF 631): 0.719 µg/mL (≈ 1.8 µM)
- IC70 (CEXF 773): 2.333 µg/mL (≈ 5.83 µM)
- IC70 (LXFL 430LX): 0.468 µg/mL (≈ 1.17 µM)
- IC70 (CXF 1103): 0.529 µg/mL (≈ 1.32 µM)
- IC70 (MAXF 1162): 0.362 µg/mL (≈ 0.904 µM)
- IC70 (HNXF 536): 0.547 µg/mL (≈ 1.37 µM)
- IC70 (MAXF 583): 0.195 µg/mL (≈ 0.487 µM)
- IC70 (SXF 463): 0.334 µg/mL (≈ 0.834 µM)
- IC70 (LXFA 1012): 0.631 µg/mL (≈ 1.58 µM)
- IC70 (CXF 1729): 0.630 µg/mL (≈ 1.57 µM)
- IC70 (CEXF 633): 1.837 µg/mL (≈ 4.59 µM)
- IC70 (MEXF 989): 0.182 µg/mL (≈ 0.455 µM)
- IC70 (DU-145): 1.644 µg/mL (≈ 4.11 µM)
- IC70 (GXF 97): 0.495 µg/mL (≈ 1.24 µM)
- IC70 (RXF 1220): 0.952 µg/mL (≈ 2.38 µM)
- IC70 (MAXF 574): 0.523 µg/mL (≈ 1.31 µM)
